Where two headings read alike, the source gives them in different places.
How the values were obtained:
Trypsin = experiment: Enzyme inhibition assay, chromogenic substrate S-2765; assay type: biochemical; details: 10 min preincubation, 3 nM enzyme
Description: Final reaction volumes were 100 μL.
For FXIIa, the buffer also contained 50 mM imidazole. […] The buffer for FIXa (50 nM final concentration) was 50 mM Tris, 100 mM NaCl, 5 mM CaCl2, and 30% ethylene glycol.

[1] = system: thrombin generation in human platelet-poor plasma; experiment: Thrombin generation assay (TGA); assay type: biochemical; details: 70% human platelet-poor plasma, 37°C
Description: The assay was performed with human platelet-poor plasma (70% final concentration) in buffer containing 20 mM HEPES (pH 7.4), 150 mM NaCl, and compound in DMSO (4% final concentration). The assay also contained phospholipids (approx. 3 μM) and Dade Innovin (1/5000 final dilution of stock). The reaction was triggered by the addition of a solution containing substrate (Z-GGR-AMC, 0.5 mM final concentration) and CaCl2 (15 mM final concentration). The reaction was then monitored kinetically by fluorescence (excitation 380 nm, emission 460 nm) at 37°C for 90 min.

Factor XIa [2] = molecular target: T1, Factor XIa (Homo sapiens, UniProt P03951); experiment: Enzyme inhibition assay, chromogenic substrate S-2366
Factor Xa [3] = molecular target: T2, Factor Xa (Homo sapiens, UniProt P00742); experiment: Enzyme inhibition assay, chromogenic substrate S-2765
Factor VIIa = Factor VIIa (Homo sapiens, UniProt P08709); experiment: Enzyme inhibition assay, chromogenic substrate S-2238
Factor IXa = Factor IXa (Homo sapiens, UniProt P00740); experiment: Enzyme inhibition assay, substrate Spectrozyme
aPC = aPC (Homo sapiens, UniProt P04070); experiment: Enzyme inhibition assay, chromogenic substrate S-2366
Factor XIIa = molecular target: T3, Factor XIIa (Homo sapiens, UniProt P00748); experiment: Enzyme inhibition assay, chromogenic substrate S-2302
T3 sequence (P00748 373-615 limits assumed): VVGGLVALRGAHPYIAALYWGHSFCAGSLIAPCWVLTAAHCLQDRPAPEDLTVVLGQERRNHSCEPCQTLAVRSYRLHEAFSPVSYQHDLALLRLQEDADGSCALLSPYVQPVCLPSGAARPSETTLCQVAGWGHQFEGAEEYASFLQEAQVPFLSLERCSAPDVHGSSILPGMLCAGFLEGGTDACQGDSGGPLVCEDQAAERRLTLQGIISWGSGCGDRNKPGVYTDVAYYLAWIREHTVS
T3 sequence (P00748 20-372 partner limits assumed): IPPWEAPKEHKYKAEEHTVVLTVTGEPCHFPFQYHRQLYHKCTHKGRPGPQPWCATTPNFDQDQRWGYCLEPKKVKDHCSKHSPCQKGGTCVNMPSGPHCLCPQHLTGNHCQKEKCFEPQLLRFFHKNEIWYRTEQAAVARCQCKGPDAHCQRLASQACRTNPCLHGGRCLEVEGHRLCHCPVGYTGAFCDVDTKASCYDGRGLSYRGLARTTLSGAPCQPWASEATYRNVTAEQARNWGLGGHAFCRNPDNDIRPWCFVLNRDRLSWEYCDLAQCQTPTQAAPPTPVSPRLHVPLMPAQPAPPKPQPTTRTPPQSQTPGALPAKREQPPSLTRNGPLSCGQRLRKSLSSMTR

Plasmin [4] = molecular target: T4, Plasmin (Homo sapiens, UniProt P00747); experiment: Enzyme inhibition assay, chromogenic substrate S-2251
[5] = system: clotting of human platelet-poor plasma; experiment: Activated partial thromboplastin time (aPTT) clotting assay; assay type: biochemical; details: 37°C
Description: (§1) Both PT and aPTT assays were performed as recommended by the vendor (Diagnostica Stago). Briefly, citrated normal pooled human platelet-poor plasma was mixed with test compound (2% DMSO) at 37°C. Subsequently, either the aPTT assay reagent or PT assay reagent was added and mixed thoroughly. CaCl2 was then added to trigger the clotting process. The time for clot formation was measured in seconds and the test compound concentration to double the clotting time (CT2x) was determined.

[6] = system: clotting of human platelet-poor plasma; details: 37°C
Description: as §1

Plasma stability assay = assay type: in vitro ADME; details: 37°C, n = 2, read-out: Plasma stability t½
Description: The compound at 20 μM (2% final DMSO concentration) was incubated with CD-1 mouse (Innovative Research), SD rat (Innovative research), or human plasma (George King BioMed) at 37°C for up to three hours. Aliquots were taken out at different time points and quenched in acetonitrile containing diclofenac (internal standard). The samples were then centrifuged and the supernatant was analyzed by UHPLC using a Kinetex 2.6 μm C18 (Phenomenex) column and a Shimadzu Nexera UHPLC. Verapamil was used as a positive control.

Factor Xa [7] = molecular target: T2, Factor Xa; experiment: Progress curve kinetics experiments; assay type: biochemical; parameters: purchased Haemtech Biopharma Services
Description: (§3) The data for the initial time points, up to at least 65% reaction progress, were analyzed as described in Wakselman et al. [20].

[8] = Control sample in buffer in the absence of thrombin; details: 50 mM Tris pH 7.4, 100 mM NaCl, 0.2% PEG 8000, up to overnight
Description: The reaction was then quenched with acetonitrile and centrifuged at 4°C, 1000x RCF, for 10 min to pellet the protein. […] Quantification of the compounds was performed by LC-MS using a Shimadzu Nexera X2 UPLC system coupled with a Sciex QTrap 5500. Chromatography was performed on a LunaOmega Polar C18 analytical column (1.6 μm, 50 x 2.1 mm). The mobile phases were 0.025% formic acid in water and 0.025% formic acid in acetonitrile.

Plasmin [9] = molecular target: T4, Plasmin; experiment: Progress curve kinetics experiments; assay type: biochemical; parameters: purchased Haemtech Biopharma Services
Description: The data for the initial time points, up to at least 65% reaction progress, were analyzed as described in Wakselman et al..
Thus, when fitting to Eq (3), the extracted values kobs for each well were plotted against the modified inhibitor concentration [I]′0=(1−α)[I]0. (6)
For the experiments presented in this paper, n = 2 and the mean and standard deviation are reported for each parameter.

[10] = Pharmacokinetics (PK) in CD-1 mice; details: male, CD-1, mouse, plasma, iv, 0.5 mg/kg
Description: The test compound was injected intravenously (i.v.) into CD-1 mice at 0.5 mg/kg in formulation containing 5% DMA (dimethyl acetamide) 15% Solutol HS15 and 80% water. Animals were euthanized at predefined time points by CO2 inhalation and blood was collected in K2-EDTA vacutainers by cardiac puncture. The vials were then centrifuged to collect plasma. […] LC-MS was performed using a Luna Omega 1.6 μm Polar C18 (Phenomenex) column, a Shimadzu Nexera UHPLC, and a Sciex QTrap 5500 mass spectrometer. The PK parameters were calculated by non-compartmental analysis using Phoenix WinNonlin (Certara).

[11] = Liver microsome (LM) stability assay; assay type: in vitro ADME; details: liver microsomes, NADPH, n = 2, read-out: LM stability t½
Description: Compound at 1 μM (0.5% final DMSO concentration) was incubated with a 0.5 mg/mL CD-1 mouse (Sigma), SD rat (Life Technologies), or human liver microsome (Life Technologies) in the presence of 1 mM NADPH at 37°C for up to one hour. Aliquots were taken out at different time points and quenched in acetonitrile containing diclofenac (internal standard). […] Verapamil was used as a positive control, and warfarin was used as a negative control.

Factor XIa [12] = molecular target: T1, Factor XIa; experiment: Progress curve kinetics experiments; assay type: biochemical
Description: as §3

thrombin mutant S195A = molecular target: T5, thrombin mutant S195A (Homo sapiens, UniProt P00734, S568A); experiment: Binding of a dansyl probe to thrombin (tryptophan fluorescence); details: 1 μM compound, excitation 280 nm, emission 340 nm
T5 construct: made in house; host or cells: E. coli
Description: (§2) Compound 2 at 1 μM was incubated with WT human α-thrombin (80 nM) or the active site mutant protein S195A at room temperature for 10 min. Then, fluorescence measurements (excitation 280 nm, emission 340 nm) were recorded in kinetic mode.

WT human α-thrombin = molecular target: T6, WT human α-thrombin (Homo sapiens, UniProt P00734); experiment: as above; details: 1 μM compound, 80 nM thrombin, excitation 280 nm, emission 340 nm
T6 construct: made in house; host or cells: E. coli
Description: as §2

thrombin = thrombin (Homo sapiens, UniProt P00734); experiment: Enzyme inhibition assay, chromogenic substrate S-2238
[13] = read-out: Cmax EC50 (peak height)
[14] = read-out: ETP EC50 (endogenous thrombin potential)

Sequence of Factor VIIa (P08709 213-466 limits assumed): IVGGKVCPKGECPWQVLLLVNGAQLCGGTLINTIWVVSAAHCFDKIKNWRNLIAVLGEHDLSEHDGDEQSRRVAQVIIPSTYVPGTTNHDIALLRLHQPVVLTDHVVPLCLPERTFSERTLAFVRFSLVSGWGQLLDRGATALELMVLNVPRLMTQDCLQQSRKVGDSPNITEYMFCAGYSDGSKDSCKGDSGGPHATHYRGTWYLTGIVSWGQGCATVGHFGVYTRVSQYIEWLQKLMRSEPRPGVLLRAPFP
Sequence of Factor VIIa (P08709 61-212 partner limits assumed): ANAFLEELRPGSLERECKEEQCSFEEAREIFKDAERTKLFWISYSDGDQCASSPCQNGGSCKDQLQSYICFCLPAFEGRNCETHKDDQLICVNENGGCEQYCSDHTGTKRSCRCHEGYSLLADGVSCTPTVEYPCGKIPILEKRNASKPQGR
Sequence of Factor VIIa (P13726 33-295 partner): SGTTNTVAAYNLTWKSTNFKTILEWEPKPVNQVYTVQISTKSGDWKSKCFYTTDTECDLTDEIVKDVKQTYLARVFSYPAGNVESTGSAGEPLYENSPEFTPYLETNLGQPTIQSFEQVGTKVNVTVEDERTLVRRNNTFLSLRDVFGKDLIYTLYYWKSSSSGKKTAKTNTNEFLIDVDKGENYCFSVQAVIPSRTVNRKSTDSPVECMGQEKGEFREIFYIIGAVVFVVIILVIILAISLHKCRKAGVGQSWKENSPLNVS
Sequence of Factor IXa (P00740 227-461 limits assumed): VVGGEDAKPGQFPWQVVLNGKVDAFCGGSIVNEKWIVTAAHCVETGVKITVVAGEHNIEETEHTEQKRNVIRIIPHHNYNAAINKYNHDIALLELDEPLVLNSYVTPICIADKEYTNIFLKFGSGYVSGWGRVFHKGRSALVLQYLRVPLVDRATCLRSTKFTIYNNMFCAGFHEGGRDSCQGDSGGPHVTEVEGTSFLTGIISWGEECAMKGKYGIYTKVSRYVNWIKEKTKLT
Sequence of Factor IXa (P00740 47-191 partner limits assumed): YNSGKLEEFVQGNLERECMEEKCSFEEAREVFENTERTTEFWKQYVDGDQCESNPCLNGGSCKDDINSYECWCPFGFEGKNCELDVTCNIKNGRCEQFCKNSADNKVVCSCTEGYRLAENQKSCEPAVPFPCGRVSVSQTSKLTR
T2 sequence (P00742 235-488 limits assumed): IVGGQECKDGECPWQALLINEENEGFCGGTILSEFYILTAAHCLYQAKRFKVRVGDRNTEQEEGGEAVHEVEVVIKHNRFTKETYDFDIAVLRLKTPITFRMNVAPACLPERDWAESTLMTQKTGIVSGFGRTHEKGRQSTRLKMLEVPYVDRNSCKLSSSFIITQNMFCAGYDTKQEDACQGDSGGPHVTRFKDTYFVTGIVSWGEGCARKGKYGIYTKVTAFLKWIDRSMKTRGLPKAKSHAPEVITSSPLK
T2 sequence (P00742 41-179 partner limits assumed): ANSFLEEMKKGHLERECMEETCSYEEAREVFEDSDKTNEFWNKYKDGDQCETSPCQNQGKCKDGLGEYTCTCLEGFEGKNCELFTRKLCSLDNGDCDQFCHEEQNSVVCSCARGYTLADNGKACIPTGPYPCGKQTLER
T1 sequence (P03951 388-625 limits assumed): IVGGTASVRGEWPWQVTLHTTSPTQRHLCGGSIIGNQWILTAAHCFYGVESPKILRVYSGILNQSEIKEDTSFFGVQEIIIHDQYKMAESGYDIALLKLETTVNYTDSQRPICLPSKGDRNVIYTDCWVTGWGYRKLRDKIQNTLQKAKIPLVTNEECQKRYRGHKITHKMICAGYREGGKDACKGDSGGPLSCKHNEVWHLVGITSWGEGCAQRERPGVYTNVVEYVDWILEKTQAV
T1 sequence (P03951 19-387 partner limits assumed): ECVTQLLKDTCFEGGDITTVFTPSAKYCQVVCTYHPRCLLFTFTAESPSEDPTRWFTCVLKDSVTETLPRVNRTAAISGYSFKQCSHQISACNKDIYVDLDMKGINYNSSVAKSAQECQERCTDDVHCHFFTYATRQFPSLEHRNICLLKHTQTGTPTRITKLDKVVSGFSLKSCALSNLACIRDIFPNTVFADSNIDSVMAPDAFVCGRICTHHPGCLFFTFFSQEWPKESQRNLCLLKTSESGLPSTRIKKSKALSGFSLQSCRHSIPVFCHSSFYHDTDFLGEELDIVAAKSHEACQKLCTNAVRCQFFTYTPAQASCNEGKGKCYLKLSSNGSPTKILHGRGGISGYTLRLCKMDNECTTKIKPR
Sequence of aPC (P04070 212-450 limits assumed): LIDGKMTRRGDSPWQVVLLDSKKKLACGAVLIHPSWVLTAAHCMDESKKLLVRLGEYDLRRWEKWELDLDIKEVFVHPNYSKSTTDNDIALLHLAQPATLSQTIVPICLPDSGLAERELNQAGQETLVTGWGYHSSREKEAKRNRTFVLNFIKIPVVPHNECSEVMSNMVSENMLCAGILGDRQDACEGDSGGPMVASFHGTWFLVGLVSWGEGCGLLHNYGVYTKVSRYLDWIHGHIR
Sequence of aPC (P04070 43-197 partner limits assumed): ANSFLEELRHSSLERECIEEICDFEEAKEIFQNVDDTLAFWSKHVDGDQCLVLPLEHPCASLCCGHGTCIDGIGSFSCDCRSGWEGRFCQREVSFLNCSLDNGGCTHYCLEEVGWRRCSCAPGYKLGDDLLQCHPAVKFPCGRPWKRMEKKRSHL
T4 sequence (P00747 581-810 limits assumed, species assumed): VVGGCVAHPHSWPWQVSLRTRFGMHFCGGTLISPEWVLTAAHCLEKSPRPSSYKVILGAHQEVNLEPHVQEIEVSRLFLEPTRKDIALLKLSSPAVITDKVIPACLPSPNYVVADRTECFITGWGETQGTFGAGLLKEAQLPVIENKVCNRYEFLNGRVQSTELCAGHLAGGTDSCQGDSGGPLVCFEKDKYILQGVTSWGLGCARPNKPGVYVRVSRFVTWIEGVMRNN
T4 sequence (P00747 97-580 partner limits assumed, species assumed): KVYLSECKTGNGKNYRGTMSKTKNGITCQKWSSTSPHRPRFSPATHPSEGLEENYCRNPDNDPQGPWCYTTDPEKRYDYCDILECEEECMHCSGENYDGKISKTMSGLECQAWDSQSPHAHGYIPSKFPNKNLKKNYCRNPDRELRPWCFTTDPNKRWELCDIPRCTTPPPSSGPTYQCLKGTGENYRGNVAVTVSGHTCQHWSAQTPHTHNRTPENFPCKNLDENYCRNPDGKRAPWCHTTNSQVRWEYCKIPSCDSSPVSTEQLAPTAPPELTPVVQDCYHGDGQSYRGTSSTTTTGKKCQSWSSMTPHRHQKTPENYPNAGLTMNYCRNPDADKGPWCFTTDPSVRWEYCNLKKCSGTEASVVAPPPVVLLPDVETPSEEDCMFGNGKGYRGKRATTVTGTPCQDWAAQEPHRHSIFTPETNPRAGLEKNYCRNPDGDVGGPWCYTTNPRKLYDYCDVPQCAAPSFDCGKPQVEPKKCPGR

SMILES	IC50 (thrombin)	EC50 [1, 13]	EC50 [1, 14]	IC50 (Factor XIa [2])	IC50 (Factor Xa [3])	IC50 (Factor VIIa)	IC50 (Factor IXa)	IC50 (aPC)	IC50 (Factor XIIa)	IC50 (Plasmin [4])	CT2x in aPTT assay (concentration to double the clotting time) [5]	other results
CC1CNc2c(cccc2S(=O)(=O)N[C@@H](CCCNC(=N)N)C(=O)N2CC[C@@H](C)C[C@@H]2C(=O)O)C1 (some centres unmarked) [Argatroban]		0.27 ± 0.05 µM	0.34 ± 0.11 µM	> 50 µM	> 50 µM	> 50 µM	> 50 µM	> 50 µM	> 50 µM	> 50 µM	0.27 ± 0.15 µM	IC50 (Trypsin): > 50 µM; CT2x in PT assay (concentration to double the clotting time) [6]: 0.60 ± 0.14 µM
COc1ccccc1C(=O)n1nc(C2CCNCC2)c(F)c1NCc1ccc(Cl)s1 [Compound 1]				2.8 ± 0.2 µM	8.3 ± 3.4 µM	13.8 ± 2.8 µM	> 50 µM	> 50 µM	> 50 µM	0.7 ± 0.15 µM	> 100 µM	half-life at 20 μM (Plasma stability assay; CD-1 mouse plasma): 14 ± 1 min; half-life at 20 μM (Plasma stability assay; Human plasma): 89 ± 9 min; half-life at 20 μM (Plasma stability assay; SD rat plasma): 25 min; Ki (Factor Xa [7]): 94 ± 57 µM; stability in buffer in the absence of thrombin [8]: stable over the entire course of the experiment; Ki (Plasmin [9]): 0.8 ± 0.6 µM; AUC [10]: 88 ng·h/mL; C0 [10]: 260 ng/mL; Vd [10]: 30 L/kg; clearance [10]: 183 mL/min/kg; half-life [10]: 114 min; half-life at 1 μM ([11]; CD-1 mouse liver microsome 0.5 mg/mL): 20 ± 2 min; half-life at 1 μM ([11]; Human liver microsome 0.5 mg/mL): 110 min; half-life at 1 μM ([11]; SD rat liver microsome 0.5 mg/mL): 8 ± 1.6 min; Ki (Factor XIa [12]): 5.5 ± 4 µM
[H]/N=C(/N)c1ccc(NCc2nc3cc(C(=O)N(CCC(=O)O)c4ccccn4)ccc3n2C)cc1 [Dabigatran]		0.24 ± 0.08 µM	0.21 ± 0.04 µM	4.2 ± 1.5 µM		40.7 ± 13.3 µM	> 50 µM	41.3 ± 7.6 µM	> 50 µM	8.4 ± 2.6 µM		

The next lines start with results.

IC50 (thrombin)	SMILES	EC50 [1, 13]	EC50 [1, 14]	IC50 (Factor XIa [2])	IC50 (Factor Xa [3])	IC50 (Factor VIIa)	IC50 (Factor IXa)	IC50 (aPC)	IC50 (Factor XIIa)	IC50 (Plasmin [4])	CT2x in aPTT assay (concentration to double the clotting time) [5]	other results
0.08 µM	CN(C)c1cccc2c(S(=O)(=O)Nc3ccc(C(=O)n4nc(C5CCNCC5)c(F)c4NCc4ccc(Cl)s4)cc3)cccc12 [Compound 2]											change of tryptophan fluorescence on addition to thrombin S195A (thrombin mutant S195A): failed to produce any change in fluorescence; change of tryptophan fluorescence on incubation with thrombin WT (WT human α-thrombin): time-dependent change in the fluorescence intensity at 340 nm
> 100 µM	Fc1c(C2CCNCC2)n[nH]c1NCc1ccc(Cl)s1 [Compound 3]	> 100 µM	> 100 µM									Tmax EC2x (concentration necessary to shift the time to peak 2-fold) [1]: > 100 µM

From paper PMC6072017, “Reversible covalent direct thrombin inhibitors” (PLoS ONE, 2018)
